From the NIST ThermoML archive (doi:10.1021/acs.jced.8b00170)
± gives the expanded uncertainty stated by the source. Values belong to the compound of their own block, whether it stands above or below them.

Legend:
[1] = Crystal; DTA
[2] = Molar enthalpy of transition or fusion; details: Crystal; DSC
[3] = wn = mass fraction of the nth substance listed; details: 101.3 kPa, Liquid, Pycnometric method

Normal melting temperature [1]: 88.2 ± 2 °C | Molar enthalpy of transition or fusion [2]: 4.5 ± 0.263 kcal/mol
Structure (SMILES): Cc1ccc2c(c1)C(=O)OC2=O [4-methylphthalic anhydride]

mass density ([3]; 288.15 K, w1 = 0.2202): 933 ± 18 kg/m3 | mass density ([3]; 298.15 K, w1 = 0.2878): 948 ± 18 kg/m3 | mass density ([3]; 308.15 K, w1 = 0.3605): 964 ± 19 kg/m3
Structure (SMILES): Cc1ccc2c(c1)C(=O)OC2=O [4-methylphthalic anhydride] + CCOC(C)=O

mass density ([3]; 288.15 K, w1 = 0.2851): 944 ± 18 kg/m3 | mass density ([3]; 298.15 K, w1 = 0.3937): 957 ± 19 kg/m3 | mass density ([3]; 308.15 K, w1 = 0.5686): 975 ± 18 kg/m3
Structure (SMILES): O=Cc1ccc2ccccc2c1 [β-naphthaldehyde] + CCOC(C)=O
